Experimental data published in ChEMBL document CHEMBL1129277, “Nonpeptidal P2 ligands for HIV protease inhibitors: structure-based design, synthesis, and biological evaluation” (J Med Chem, 1996).
Converted amounts (≈) assume the structure as drawn.

Experiments:
[1] = target: Human immunodeficiency virus type 1 protease (Human immunodeficiency virus 1) (UniProt Q72874); experiment: Inhibitory activity against HIV-1 protease enzyme
[2] = test system: Human immunodeficiency virus 1; experiment: Inhibition of HIV-1 replication in infected MT-4 human T-lymphoid cells.; type: functional, organism-based; settings: Human immunodeficiency virus 1, T-lymphoid
[3] = Aqueous solubility in phosphate buffer of pH 7.4; type: physicochemical

SMILES	IC95 [1] [nM]	IC50 [2] [nM]	solubility [3] [µg/mL]
C[C@@H]1C[C@@H]2[C@@H](OC[C@@H]2OC(=O)N[C@@H](Cc2ccccc2)[C@H](O)CN2C[C@H]3CCCC[C@H]3C[C@H]2C(=O)NC(C)(C)C)O1	200	4.1	
COC[C@@H]1SCC[C@@H]1OC(=O)N[C@@H](Cc1ccccc1)[C@H](O)CN1C[C@H]2CCCC[C@H]2C[C@H]1C(=O)NC(C)(C)C		19.7	
C[C@H]1C[C@@H]2[C@@H](OC[C@@H]2OC(=O)N[C@@H](Cc2ccccc2)[C@H](O)CN2C[C@H]3CCCC[C@H]3C[C@H]2C(=O)NC(C)(C)C)O1	200	27.1	
CC(C)(C)NC(=O)[C@@H]1C[C@@H]2CCCC[C@@H]2CN1C[C@@H](O)[C@H](Cc1ccccc1)NC(=O)O[C@H]1CO[C@H]2CCC[C@H]21		190	
CC(C)(C)NC(=O)[C@@H]1C[C@@H]2CCCC[C@@H]2CN1C[C@@H](O)[C@H](Cc1ccccc1)NC(=O)O[C@H]1CO[C@H]2OCCC[C@H]21	100	4.2	
CC(C)(C)NC(=O)[C@@H]1C[C@@H]2CCCC[C@@H]2CN1C[C@@H](O)[C@H](Cc1ccccc1)NC(=O)O[C@H]1CCOC1		132	150 (≈ 291 µM)
COC[C@H]1[C@@H](OC(=O)N[C@@H](Cc2ccccc2)[C@H](O)CN2C[C@H]3CCCC[C@H]3C[C@H]2C(=O)NC(C)(C)C)CCS1(=O)=O		23.8	
CC(C)(C)NC(=O)[C@@H]1C[C@@H]2CCCC[C@@H]2CN1C[C@@H](O)[C@H](Cc1ccccc1)NC(=O)O[C@@H]1CO[C@@H]2OCCC[C@@H]21	50	1.2	107 (≈ 187 µM)
CC(C)(C)NC(=O)[C@@H]1C[C@@H]2CCCC[C@@H]2CN1C[C@@H](O)[C@H](Cc1ccccc1)NC(=O)O[C@H]1CCS(=O)(=O)C1	364	76	
CC(C)(C)NC(=O)[C@@H]1C[C@@H]2CCCC[C@@H]2CN1C[C@@H](O)[C@H](Cc1ccccc1)NC(=O)O[C@@H]1CCOC1	> 800	694	
CC(C)(C)NC(=O)[C@@H]1C[C@@H]2CCCC[C@@H]2CN1C[C@@H](O)[C@H](Cc1ccccc1)NC(=O)O[C@H]1CO[C@H]2OCC[C@H]21		1.8	235 (≈ 421 µM)
CC(C)(C)NC(=O)[C@@H]1C[C@@H]2CCCC[C@@H]2CN1C[C@@H](O)[C@H](Cc1ccccc1)NC(=O)O[C@H]1CCSC1		132	
CC(C)(C)NC(=O)[C@@H]1C[C@@H]2CCCC[C@@H]2CN1C[C@@H](O)[C@H](Cc1ccccc1)NC(=O)O[C@H]1CO[C@@]2(C)OCC[C@@H]12	> 200	18.1	
CC(C)(C)NC(=O)[C@@H]1C[C@@H]2CCCC[C@@H]2CN1C[C@@H](O)[C@H](Cc1ccccc1)NC(=O)O[C@@H]1CO[C@@H]2CCO[C@@H]21	> 200	> 3000	
CC(C)(C)NC(=O)[C@@H]1C[C@@H]2CCCC[C@@H]2CN1C[C@@H](O)[C@H](Cc1ccccc1)NC(=O)O[C@H]1CC[C@H]2OCC[C@@H]12		17	
CC(C)(C)NC(=O)[C@@H]1C[C@@H]2CCCC[C@@H]2CN1C[C@@H](O)[C@H](Cc1ccccc1)NC(=O)O[C@]12CCO[C@H]1OCC2	> 200	410	
CC(C)(C)NC(=O)[C@@H]1C[C@@H]2CCCC[C@@H]2CN1C[C@@H](O)[C@H](Cc1ccccc1)NC(=O)O[C@@H]1CO[C@@H]2OCC[C@@H]21		6.4	130 (≈ 233 µM)
CC(C)(C)NC(=O)[C@@H]1C[C@@H]2CCCC[C@@H]2CN1C[C@@H](O)[C@H](Cc1ccccc1)NC(=O)O[C@H]1CO[C@H]2COC[C@H]21		1700	
CC(C)(C)NC(=O)[C@@H]1C[C@@H]2CCCC[C@@H]2CN1C[C@@H](O)[C@H](Cc1ccccc1)NC(=O)[C@H](CC(N)=O)NC(=O)c1ccc2ccccc2n1 [SAQUINAVIR]			10 (≈ 14.9 µM)
